Measurements taken from PubChem BioAssay AID624437 (The Scripps Research Institute Molecular Screening Center, 2012).
Calls of active or inactive are those of the source.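 How the source made its calls: active means PP1 inhibition of at least 30% at 50 µM, though none qualified; inactive means the rest.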

What follows are compounds tested against Serine/threonine-protein phosphatase PP1-alpha catalytic subunit (Homo sapiens) (UniProt P62136) (assay: PP1alpha phosphatase inhibition, phosphohistone substrate, late-stage follow-up, selectivity assay for PP5 inhibitor project, biochemical, 33P-phosphohistone, radiolabel, single concentration, round 5 (AID 624437)). Details: purified PP1alpha, 33P-phosphohistone dephosphorylation, scintillation; at 50 µM; hits give high values.
Sequence of Serine/threonine-protein phosphatase PP1-alpha catalytic subunit (Homo sapiens) (P62136 whole entry, looked up): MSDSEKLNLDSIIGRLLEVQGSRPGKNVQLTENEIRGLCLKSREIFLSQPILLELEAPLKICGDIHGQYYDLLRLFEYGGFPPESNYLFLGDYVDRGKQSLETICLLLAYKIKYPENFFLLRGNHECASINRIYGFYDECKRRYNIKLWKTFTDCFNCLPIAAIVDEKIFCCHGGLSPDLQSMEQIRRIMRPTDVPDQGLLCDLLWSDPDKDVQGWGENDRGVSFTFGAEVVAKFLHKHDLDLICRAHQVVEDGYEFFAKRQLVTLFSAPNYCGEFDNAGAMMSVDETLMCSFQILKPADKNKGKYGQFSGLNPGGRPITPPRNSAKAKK

Structure (SMILES) | inhibition
COc1cccc(-c2n[nH]nc2C(=O)O)c1 | 11.1% (inactive)
O=C(O)c1n[nH]nc1-c1ccccc1F | 20.5% (inactive)
COc1ccc(-c2n[nH]nc2C(=O)O)cc1 | 1.04% (inactive)
COc1ccccc1-c1n[nH]nc1C(=O)O | 23.3% (inactive)
O=C(O)c1n[nH]nc1-c1ccc(F)cc1 | 10.4% (inactive)

Next, values leading:

inhibition | Structure (SMILES)
10.3% (inactive) | O=C(O)c1n[nH]nc1-c1cccc(F)c1
10.9% (inactive) | O=C(O)c1n[nH]nc1-c1ccccc1O
